# Like-named read-outs stand apart in the source and are kept apart here.
# Experiments:
# BT-549 cells = assay: MTT metabolization, inhibition of BT-549 cell proliferation; format: cell-based; conditions: Homo sapiens, read-out: Percentage inhibition Formula (III) mean
# Description: (§1) These triple negative breast cancer cell lines were obtained from the American Type Culture Collection Cell Biology Collection (ATCC) (Manassas, Va.). The medium was changed every 2 days.
# (§2) Cell proliferation and growth experiments were carried out using 3-(4,5-dimethylthiazol-2-yl)-2,5-diphenyltetrazolium bromide (MTT) uptake assays, where MTT is reduced to purple formazan by the mitochondria of living cells. Increase in cell number is detected by augmented MTT metabolization, and decrease in cell number is reflected by a decrease. […] The cells were treated with the drug at different concentrations to plot the dose-response curves in all cancer cell lines using in the study. […] After treatment, each well was replaced with 250 μL of fresh medium containing MTT ([…]) and incubated for 1 hour. The medium was then removed and 500 μL of dimethyl sulfoxide was added to each well. The plate was agitated in the dark for 5 minutes to dissolve the MTT-formazan crystals. The absorbance of the samples was recorded at 562 nm in a multi-well plate reader (BMG labtech). Results were plotted as the mean values of quadruplicates from a representative experiment that was repeated at least two independent times.
# (§3) Combination index values less than 1 indicate synergism, values equal to 1 indicate an additive effect, whereas values greater than 1 indicate antagonism. Combination index values from three independent experiments were generated.
# BT549 cells = assay: Cell cycle analysis by flow cytometry (propidium iodide); format: cell-based; conditions: 500 nM, 24 h
# Description: (§4) Cell cycle analyses and evaluation of apoptosis were performed by flow cytometry using propidium iodide and Annexin V, respectively.
# (§5) For cell cycle analyses, HS578T, BT549 and MDA-MB-231 cells were cultured in 100-mm culture dishes, grown to 70% confluence, and treated with 500 nM Formula (III) for 24 h. Cell monolayers were then incubated in trypsin-EDTA and resuspended in 1 mL of PBS. After three washes with PBS, the cell pellets were resuspended in ice cold 70% ethanol for 2 min and centrifuged 5 min at 1800 rpm. The cell pellets were treated with 1 mL of propidium iodide (PI) staining solution (PBS containing 50 μg/mL of PI, 0.5% Tween 20, 0.1 μg/mL RNase A) (BD Biosciences) and incubated in the dark for 1 h. DNA content and cell cycle analyses were performed by using a FACS canto II flow cytometer and the CellQuest software (BD Biosciences).
# HS578T cells = assay: as above; format: cell-based; conditions: 500 nM, 24 h
# Description: as §4, §5
# MDA-MB-231 cells [1] = assay: as above; format: cell-based; conditions: 500 nM, 24 h
# Description: as §4, §5
# MDA-MB-231 cells [2] = assay: MTT metabolization, inhibition of MDA-MB-231 cell proliferation; format: cell-based; conditions: Homo sapiens, read-out: Percentage inhibition Formula (III) mean
# Description: as §1, §2, §3
# [3] = system: HS578T, BT549 and MDA-MB-231 cells; assay: Apoptosis by Annexin V staining, single agent; format: cell-based; conditions: 500 nM, 24 and 48 hours
# Description: as §4
# For apoptosis analyses, HS578T, BT549 and MDA-MB-231 cell monolayers were incubated in trypsin-EDTA, washed twice with cold PBS, and then resuspended in binding buffer (10 mM HEPES free acid [pH 7.4], 140 mM NaCl, 2.5 mM CaCl2) at a concentration of 1×10^6 cells per mL. A total of 1×10^5 cells were incubated for 15 minutes in the dark with Annexin V-APC (BD Biosciences) and propidium iodide (PI) staining solution (5 μL Annexin V-[…], 10 μL of PI [[…] final concentration], 400 μL binding buffer).
# animal models = assay: Studies in animal models; conditions: in vivo
structure (smiles),measurement,setting,value
C[C@]12O[C@H](C[C@@H](O)[C@H]1O)n1c3ccccc3c3c4c(c5c6ccccc6n2c5c31)C(=O)NC4=O [Formula (III)],inhibition at 0.1 µM,"BT-549 cells; BT-549, Formula (III) 100 nM alone (Table 9)",68.8%
same,inhibition at 0.1 µM,"BT-549 cells; BT-549, Formula (III) 100 nM alone (Table 10)",90.8%
same,inhibition at 0.12 µM,"BT-549 cells; BT-549, Formula (III) 120 nM alone (Table 7)",75.5%
same,inhibition at 0.12 µM,"BT-549 cells; BT-549, Formula (III) 120 nM alone",75.5%
same,inhibition at 0.18 µM,"BT-549 cells; BT-549, Formula (III) 180 nM alone (Table 7)",63.7%
same,inhibition at 0.18 µM,"BT-549 cells; BT-549, Formula (III) 180 nM alone",63.7%
same,inhibition at 0.2 µM,"BT-549 cells; BT-549, Formula (III) 200 nM alone (Table 8)",98.5%
same,inhibition at 0.2 µM,"BT-549 cells; BT-549, Formula (III) 200 nM alone (Table 9)",72.1%
same,inhibition at 0.2 µM,"BT-549 cells; BT-549, Formula (III) 200 nM alone (Table 10)",71.4%
same,inhibition at 0.24 µM,"BT-549 cells; BT-549, Formula (III) 240 nM alone (Table 7)",45%
same,inhibition at 0.24 µM,"BT-549 cells; BT-549, Formula (III) 240 nM alone",45%
same,inhibition at 0.26 µM,"BT-549 cells; BT-549, Formula (III) 260 nM alone (Table 8)",92.9%
same,inhibition at 0.3 µM,"BT-549 cells; BT-549, Formula (III) 300 nM alone (Table 7)",31.9%
same,inhibition at 0.3 µM,"BT-549 cells; BT-549, Formula (III) 300 nM alone (Table 8)",78%
same,inhibition at 0.3 µM,"BT-549 cells; BT-549, Formula (III) 300 nM alone (Table 9)",55.9%
same,inhibition at 0.3 µM,"BT-549 cells; BT-549, Formula (III) 300 nM alone (Table 10)",62.8%
same,inhibition at 0.3 µM,"BT-549 cells; BT-549, Formula (III) 300 nM alone",31.9%
same,inhibition at 0.38 µM,"BT-549 cells; BT-549, Formula (III) 380 nM alone (Table 8)",75.8%
same,inhibition at 0.4 µM,"BT-549 cells; BT-549, Formula (III) 400 nM alone (Table 9)",36.3%
same,inhibition at 0.4 µM,"BT-549 cells; BT-549, Formula (III) 400 nM alone (Table 10)",38.5%
same,increase of cells in G2/M phase,BT549 cells,22%
same,increase of cells in G2/M phase,HS578T cells,15%
same,increase of cells in G2/M phase,MDA-MB-231 cells [1],18%
same,viability at 0.1 µM,"MDA-MB-231 cells [2]; MDA-MB-231, Formula (III) 100 nM alone (Table 4)",56.4%
same,viability at 0.1 µM,"MDA-MB-231 cells [2]; MDA-MB-231, Formula (III) 100 nM alone (Table 5)",62.5%
same,viability at 0.12 µM,"MDA-MB-231 cells [2]; MDA-MB-231, Formula (III) 120 nM alone (Table 2)",63.8%
same,viability at 0.12 µM,"MDA-MB-231 cells [2]; MDA-MB-231, Formula (III) 120 nM alone",63.8%
same,viability at 0.18 µM,"MDA-MB-231 cells [2]; MDA-MB-231, Formula (III) 180 nM alone (Table 2)",49.8%
same,viability at 0.18 µM,"MDA-MB-231 cells [2]; MDA-MB-231, Formula (III) 180 nM alone",49.8%
same,viability at 0.2 µM,"MDA-MB-231 cells [2]; MDA-MB-231, Formula (III) 200 nM alone (Table 3)",60.3%
same,viability at 0.2 µM,"MDA-MB-231 cells [2]; MDA-MB-231, Formula (III) 200 nM alone (Table 4)",56.4%
same,viability at 0.2 µM,"MDA-MB-231 cells [2]; MDA-MB-231, Formula (III) 200 nM alone (Table 5)",46.9%
same,viability at 0.24 µM,"MDA-MB-231 cells [2]; MDA-MB-231, Formula (III) 240 nM alone (Table 2)",38.2%
same,viability at 0.24 µM,"MDA-MB-231 cells [2]; MDA-MB-231, Formula (III) 240 nM alone",38.2%
same,viability at 0.26 µM,"MDA-MB-231 cells [2]; MDA-MB-231, Formula (III) 260 nM alone (Table 3)",54.5%
same,viability at 0.3 µM,"MDA-MB-231 cells [2]; MDA-MB-231, Formula (III) 300 nM alone (Table 2)",28.1%
same,viability at 0.3 µM,"MDA-MB-231 cells [2]; MDA-MB-231, Formula (III) 300 nM alone (Table 3)",49.4%
same,viability at 0.3 µM,"MDA-MB-231 cells [2]; MDA-MB-231, Formula (III) 300 nM alone (Table 4)",40.2%
same,viability at 0.3 µM,"MDA-MB-231 cells [2]; MDA-MB-231, Formula (III) 300 nM alone (Table 5)",40.5%
same,viability at 0.3 µM,"MDA-MB-231 cells [2]; MDA-MB-231, Formula (III) 300 nM alone",28.1%
same,viability at 0.38 µM,"MDA-MB-231 cells [2]; MDA-MB-231, Formula (III) 380 nM alone (Table 3)",36.9%
same,viability at 0.4 µM,"MDA-MB-231 cells [2]; MDA-MB-231, Formula (III) 400 nM alone (Table 4)",35.3%
same,viability at 0.4 µM,"MDA-MB-231 cells [2]; MDA-MB-231, Formula (III) 400 nM alone (Table 5)",33.7%
same,apoptosis (Annexin V staining),[3],"an increase at 48 hours, more evident in HS578T"
same,toxicities in animal models,animal models,no evidence of toxicities

# From US9808469B2, “Antitumor activity of multi-kinase inhibitors in triple negative breast cancer” (ENTRECHEM, S.L, priority 2014, dated 2017)
